Test results as given in patent US8791132B2, “Compounds and methods for treatment of hypertension” (Medivation Technologies, Inc., priority 2011, dated 2014).

Key:
[1] = target: T1, human recombinant adrenergic α1D receptor (Homo sapiens, UniProt P25100); assay: Radioligand binding, adrenergic α1D ([3H]Prazosin); settings: compound at 0.1 μM; [3H]Prazosin; repeat assays, each datapoint shown; read-out: Percentage inhibition of ligand binding, Adrenergic α1D
T1 construct: expressed in transfected cells; host or cells: HEK-293
T1 sequence (P25100 1-572): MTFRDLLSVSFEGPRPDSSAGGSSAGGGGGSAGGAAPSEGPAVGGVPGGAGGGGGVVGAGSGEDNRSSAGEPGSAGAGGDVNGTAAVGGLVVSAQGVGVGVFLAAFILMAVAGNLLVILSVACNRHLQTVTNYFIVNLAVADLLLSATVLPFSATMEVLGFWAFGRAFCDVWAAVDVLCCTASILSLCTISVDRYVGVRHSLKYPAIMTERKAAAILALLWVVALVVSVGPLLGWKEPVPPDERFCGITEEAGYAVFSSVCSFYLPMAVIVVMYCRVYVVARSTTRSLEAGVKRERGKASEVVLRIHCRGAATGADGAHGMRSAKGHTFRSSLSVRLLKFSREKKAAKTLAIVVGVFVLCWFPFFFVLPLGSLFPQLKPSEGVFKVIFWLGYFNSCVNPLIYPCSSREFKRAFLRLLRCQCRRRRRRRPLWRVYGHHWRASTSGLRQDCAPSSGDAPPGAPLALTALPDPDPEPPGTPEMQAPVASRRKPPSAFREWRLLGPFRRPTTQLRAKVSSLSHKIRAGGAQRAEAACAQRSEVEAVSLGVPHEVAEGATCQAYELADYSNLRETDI
Method: Compounds were incubated with 0.6 nM [3H]Prazosin for 60 min at 25° C. Non-specific binding was estimated in the presence of 10 μM phentolamine. Receptor proteins were filtered and washed, the filters were then counted to determine [3H]Prazosin specifically bound. […] Biochemical assay results are presented as the percent inhibition of specific binding in Table B1.

[2] = test system: spontaneously hypertensive rats (SHR); assay: Blood pressure in spontaneously hypertensive rat (SHR) model of hypertension; type: in vivo; settings: for systolic blood pressure: SC or PO, 4 hour study period (FIGS. 7-10); for systolic blood pressure lowering effects: escalating doses 1, 3, 10 and 30 mg/kg/iv for every 30 minutes (FIGS. 20-22)
Method: Male spontaneously hypertensive rats (SHR), approximately 3 months of age and weighting approximately 250 grams were utilized. Free access to standard lab chow for rats and reverse osmosis (RO) water was granted. All aspects of this work, including housing, experimentation and disposal of animals were performed in general accordance with the Guide for the Care and Use of Laboratory Animals (National Academy Press, Washington, D.C., 1996).
The animals were anaesthetized with sodium pentobarbital (50 mg/kg IP). The left carotid artery when compound dosed orally (PO) or subcutaneously (SC); and both left carotid and femoral artery when compound dosed intravenous (i.v.) were cannulated with a polyethylene catheter (38 cm in length; PE60, Portex, Ltd.) connected with a polyurethane tubing (12 cm in length; PU-40, Cat. #BB520-40, Scientific Commodities, Inc.), which was tunneled under the skin and exited through the nape of the neck. The arterial cannula was connected to a pressure transducer through a swivel system, allowing free roaming during continuous recording of mean arterial pressure and heart rate. The animals were housed individually with food and water freely available during recovery. On the following day, the arterial cannula was connected via a Statham (P 23×L) pressure transducer to a NEC/San-Ei amplifier and data acquisition and analysis system (Power Lab 8/SP) for direct mean arterial pressure and heart rate measurements.
The test compounds, dissolved in sterile saline, were administered subcutaneously (SC) or orally (PO), or by intravenous (i.v.) bolus administration in two minutes or the escalating doses of compound administration in every 30 minutes, with each dose and its strength delivered over 2 minutes as shown in the respective figures; the internal standard phentolamine was given by oral gavage. The control group received vehicle alone. Immediately before (−10 min and −5 min) and at 15 min, 30 min, 1 hr, 1.5 hr, 2 hr, 2.5 hr, 3 hr, 3.5 hr, and 4 hr post-dosing, systolic pressure blood pressure values were recorded.

SH-SY5Y cells = assay: Cell death (LDH release) in hydrogen peroxide-treated SH-SY5Y cells; type: cell-based; settings: LDH release normalized to vehicle (=100); hydrogen peroxide 300 μM, 24 h; compounds at 10 nM
Method: SH-SY5Y cells cultured in DMEM/F12 media supplemented with 10% FBS were seeded in 96-well microplates at 150,000 cells/cm^2. After 24 h, cells were depleted from FBS and kept in culture for 24 h before the experiment. Cells were then treated with 4-Br-A23187 (2 μM), hydrogen peroxide (300 μM) or the mitochondrial toxin rotenone (25 μM) in the presence of vehicle or Compound of the Invention for 24 h. Cell death was determined by measurements of LDH release according to the Cytotoxicity Detection KitPlus (Roche, Mannheim, Germany). Cell viability was determined by measuring the capacity of cells to metabolize MTS tetrazolium (MTS) according to the Cytotoxicity Detection KitPlus (Roche, Mannheim, Germany) and MTS reduction is assessed by the CellTiter 96® AQueous One Solution Cell Proliferation assay (Promega Corporation, Madison, Wis., USA). Compounds were screened at 10 nM, using DMSO as vehicle. Assay results for the experiments with hydrogen peroxide are presented as the LDH release (cell death) of untreated cells (control), hydrogen peroxide-treated cells (vehicle), and co-incubation of hydrogen peroxide with Compounds of the Invention treated cells normalized to the vehicle (FIG. 17A). This assay assesses the ability of the test compounds to protect against cell death that is mediated by mitochondrial dysfunction. In the assay, the calcium ionophore 4-Br-A23187 is used to challenge the cells, causing calcium levels to rise in mitochondria, which leads to depolarization and cell death. Test compounds are assessed for their ability to prevent cell death in response to challenge with 4-Br-A23187.

| Compound | inhibition at 0.1 µM [1] [%] | LDH release (cell death), relative to vehicle (SH-SY5Y cells) | other results |
| --- | --- | --- | --- |
| Cc1ccc2c(c1)c1c(n2CC(O)c2ccncc2)CCN(C)C1 (stereo not shown) [compound 3] | 12 |  | systolic blood pressure [2]: dose-dependent reduction in systolic blood pressure |
| CN1CCc2c(c3cc(Cl)ccc3n2CC(O)c2ccncc2)C1 (single isomer, unassigned) [4a] |  | 81.64 |  |
| Cc1ccc2c(c1)c1c(n2CC(O)c2ccncc2)CCN2CCCC12 (single isomer, unassigned) [129d] |  |  | heart rate ([2]; oral or iv bolus or i.v. escalating doses): tachycardia; effects on systolic blood pressure ([2]; oral or iv bolus or i.v. escalating doses (FIGS. 23-25)): robust |
| Cc1ccc2c(c1)c1c(n2CC(C)(O)c2cccnc2)CCN(C)C1 (single isomer, unassigned) [5b, 1-(1,2,3,4-tetrahydro-2,8-dimethylpyrido[4,3-b]indol-5-yl)-2-(pyridin-3-yl)propan-2-ol] | 1 | 73.73 |  |
| Cc1ccc2c(c1)c1c(n2CC(C)(O)c2cnccn2)CCN2CCCC12 (single isomer, unassigned) [176a] |  |  | systolic blood pressure lowering effects [2]: robust |
| Cc1cnc2c(c1)c1c(n2CC(C)(O)c2cccnc2)CCN2CCCC12 (single isomer, unassigned) [26a] |  |  | systolic blood pressure lowering effects [2]: robust |
| Cc1ccc2c(c1)c1c(n2CC(O)c2ccncc2)CCNC1 (single isomer, unassigned) [39a, 2-(8-methyl-1,2,3,4-tetrahydro-pyrido[4,3-b]indol-5-yl)-1-pyridin-4-yl-ethanol] |  | 82.94 |  |
| Cc1ccc2c(c1)c1c(n2CC(O)c2ccncc2)CCN(C)C1 (single isomer, unassigned) [3b] | 18 | 86.70 | systolic blood pressure [2]: lowered systolic blood pressure |
